# In patent US8080517B2, “Cell-permeable peptide inhibitors of the JNK signal transduction pathway” (Xigen SA, priority 2005, dated 2011):
# [ ]: non-standard residue; d: D form.
# Legend:
# [1] = system: JNK; details: JBDs; cited from earlier work
# [2] = Focal cerebral ischaemia, transient MCAO model, infarct volume; format: in vivo, male ICR-CD1 mice
# Description: Evaluation of neuroprotection by inventive chimeric peptides after iv administration against focal cerebral ischaemia, in a transient MCAO model (see FIG. 4).
# Transient ischemia in adult mice. Using male ICR-CD1 mice (6 weeks old; 18-37 g; Harlan), we provoked ischemia by introducing a filament from the common carotid artery into the internal carotid and advancing it into the arterial circle, thereby occluding the middle cerebral artery. We measured regional cerebral blood flow by laser Doppler flowmetry, with a probe fixed on the skull throughout the ischemia until 10 min after reperfusion. Rectal temperature was measured and maintained at 37° C. The mice were killed 48 h after reperfusion. Serial cryostat sections 20 μm thick were traced using a computer-microscope system equipped with the Neurolucida program (MicroBrightField) and the volumes of the ischemic area and of the whole brain were calculated (blinded) with the Neuroexplorer program. XG−102 0.3=0.3 mg/kg,XG−102 1=1 mg/kg, XG−102 5=5 mg/kg
# The infarct volume sizes (mm^3) after bolus iv administration of placebo and XG-102 0.3, […] 6 hours after reperfusion (30 minutes clamp) in an adult mice model were as follows.
# [3] = system: WiDr cells; assay: Irradiation (30 Gy) induced apoptosis; format: cell-based, human; details: 1 μM added 30 minutes before 30 Gy, analyzed 48 hours later
# Description: JNK is also activated by ionizing radiation. To determine whether inventive TAT-IB(s) peptides would provide protection against radiation-induced JNK damage, “WiDr” cells were irradiated (30 Gy) in presence or absence of D-TAT, inventive L-TAT-IB1(s) or inventive D-TAT-IB1(s) peptides (1 μM added 30 minutes before irradiation). Control cells (CTRL) were not irradiated. Cells were analyzed 48 hours later by means of PI and Hoechst 3342 staining, as described above. N=3, SEM are indicated.
# [4] = system: βTC-3 cells; assay: IL-1β induced pancreatic β-cell death, peptide treatment, propidium iodide / Hoechst 33342 staining; format: cell-based; details: for long term inhibition of IL-1β induced cell-death: IL-1β 10 ng/ml every two days, 15 days
# Description: We investigated the effects of the inventive L-TAT-IB(s) peptides on the promotion of β-cell apoptosis elicited by IL-1. βTC-3 cell cultures were incubated for 30 minutes with 1 μM of inventive L-TAT-IB1(s) peptides followed by 10 ng/mL of IL-1. A second addition of peptide (1 μM) was performed 24 hours later. Apoptotic cells were counted after two days of incubation with IL-1 β using propidium iodide (red stained cell are dead cells) and Hoechst 33342 (blue stained cell are cells with intact plasma membrane) nuclear staining.
# Long term inhibition of IL-1 induced cells death was examined by treating βTC-3 cells as described above, except that incubation of the cells with the peptides and IL-1 β was sustained for 12 days. Additional peptides (1 μM) were added each day and additional IL-1 β (10 ng/mL) was added every 2 days. […] Taken together, these experiments provide evidence that inventive TAT-IB(s) peptides are biologically active molecules able to prevent the effects of JNK signaling on cell fate.
# Inhibition of IL-1 β induced pancreatic β-cell death by the inventive D-TAT-IB1(s) peptide was analyzed. βTC-3 cells were incubated as described above for 30 minutes with one single addition of the indicated peptides (1, μM), then IL-1 (10 ng/ml) was added.
# Apoptotic cells were then counted after two days of incubation with IL-1 β by use of Propidium Iodide and Hoechst 33342 nuclear staining. A minimum of 1,000 cells were counted for each experiment. Standard Error of the Means (SEM) are indicated, n=5.
# Long term inhibition of IL-1P induced cell-death by the D-TAT-IB1 peptide was also analyzed. βTC-3 cells were incubated as above for 30 minutes with one single addition of the indicated peptides (1 μM), then IL-1 β (10 ng/ml) was added, followed by addition of the cytokine every two days. Apoptotic cells were then counted after 15 days of incubation with IL-1 by use of propidium iodide and Hoechst 33342 nuclear staining. […] A minimum of 1.000 cells were counted for each experiment.
# [5] = system: AP-1 DNA binding complex; assay: Gel retardation assay with AP-1 probe, nuclear extracts of TNF-α treated HeLa cells; format: cell-based; details: peptide added 30 minutes before TNF-α 5 ng/ml
# [6] = system: activated JNKs; assay: c-Jun phosphorylation by activated JNKs pulled down with GST-Jun from UV-light irradiated HeLa cells or IL-1β treated βTC-3 cells; format: biochemical; details: peptide 25 μM for 20 minutes
# Description: The effects of the L-TAT or inventive L-TAT-IB1(s) peptides on JNKs activated by stressful stimuli were evaluated using GST-Jun to pull down JNKs from UV-light irradiated HeLa cells or IL-1 β treated PTC cells. PTC cells were cultured as described above. HeLa cells were cultured in DMEM medium supplemented with 10% Fetal Calf Serum, 100 μg/mL Streptomycin, 100 units/ml Penicillin and 2 mM Glutamine. One hour prior to being used for cell extract preparation, PTC cells were activated with IL-1 β as described above, whereas HeLa cells were activated by UV-light (20 J/m^2). Cell extracts were prepared from control, UV-light irradiated HeLa cells and IL-1β treated βTC-3 cells by scraping the cell cultures in lysis buffer (20 mM Tris-acetate, 1 mM EGTA, 1% Triton X-100, 10 mM p-nitrophenyl-phosphate, 5 mM sodium pyrophosphate, 10 mMP-glycerophosphate, 1 mM dithiothreitol). Debris was removed by centrifugation for five minutes at 15,000 rpm in an SS-34 Beckman rotor. One-hundred μg extracts were incubated for one hour at room temperature with one μg GST-jun (amino acids 1-89) and 10 μL of glutathione-agarose beads (Sigma). Following four washes with the scraping buffer, the beads were resuspended in the same buffer supplemented with L-TAT or inventive L-TAT-IB1(s) peptides (25 μM) for 20 minutes. […]
# [7] = target: T1, JNK3 (Homo sapiens, UniProt P53779); assay: Solid phase kinase assay, JNK3 phosphorylation of Elk1; format: biochemical; details: dose response 0-25 μM, GST-ELK1 (aa 307-428)
# T1 construct: host or cells: cell-free: rabbit reticulocyte lysate transcription/translation
# Description: (§1) The effects of the peptides on JNKs-mediated phosphorylation of their target transcription factors were investigated in vitro. Recombinant and non activated JNK1, JNK2 and JNK3 were produced using a TRANSCRIPTION AND TRANSLATION rabbit reticulocyte lysate kit (Promega) and used in solid phase kinase assays with c-Jun, ATF2 and Elk1, either alone or fused to glutathione-S-transferase (GST), as substrates. Dose response studies were performed wherein inventive L-TAT or L-TAT-IB1(s) peptides (0-25 μM) were mixed with the recombinant JNK1, JNK2, or JNK3 kinases in reaction buffer (20 mM Tris-acetate, 1 mM EGTA, 10 mM p-nitrophenyl-phosphate (pNPP), 5 mM sodium pyrophosphate, 10 mM p-glycerophosphate, 1 mM dithiothreitol) for 20 minutes. The kinase reactions were then initiated by the addition of 10 mM MgCl2 and 5 pCi […] and 1 μg of either GST-Jun (aa 1-89), GST-AFT2 (aa 1-96) or GST-ELK1 (aa 307-428). GST-fusion proteins were purchased from Stratagene (La Jolla, Calif.).
# Ten μL of glutathione-agarose beads were also added to the mixture. Reaction products were then separated by SDS-PAGE on a denaturing 10% polyacrylamide gel. […] The ability of D-TAT, inventive D-TAT-IB1(s) and inventive L-TAT-IB1(s) peptides (0-250 μM dosage study) to inhibit GST-Jun (aa 1-73) phosphorylation by recombinant JNK1, JNK2, and JNKS by were analyzed as described above. […]
# [8] = system: recombinant JNK1, JNK2, or JNK3 kinases; assay: Solid phase kinase assay, phosphorylation of c-Jun, ATF2 and Elk1 by recombinant JNKs; format: biochemical
# Description: as §1
# Ten μL of glutathione-agarose beads were also added to the mixture. Reaction products were then separated by SDS-PAGE on a denaturing 10% polyacrylamide gel. Gels were dried and subsequently exposed to X-ray films (Kodak). […] The ability of D-TAT, inventive D-TAT-IB1(s) and inventive L-TAT-IB1(s) peptides (0-250 μM dosage study) to inhibit GST-Jun (aa 1-73) phosphorylation by recombinant JNK1, JNK2, and JNKS by were analyzed as described above. Overall, D-TAT-IB1(s) peptide decreased JNK-mediated phosphorylation of c-Jun, but at levels approximately 10-20 fold less efficiently than L-TAT-IB1(s).
# [9] = system: JNK signaling; assay: Heterologous GAL4 system (GAL-Jun / 5xGAL-LUC luciferase reporter) in HeLa cells with MKK4/MKK7 activation of JNK; format: cell-based; details: peptide 1 μM
# Description: To determine whether the inventive cell-permeable peptides could block JNK signaling in vivo, we used a heterologous GAL4 system. HeLa cells, cultured as described above, were co-transfected with the 5×GAL-LUC reporter vector together with the GAL-Jun expression construct (Stratagene) comprising the activation domain of c-Jun (amino acids 1-89) linked to the GAL4 DNA-binding domain. Activation of JNK was achieved by the co-transfection of vectors expressing the directly upstream kinases MKK4 and MKK7 (see Whitmarsh et al., Science 285: 1578 (1999)). Briefly, 3×10^5 cells were transfected with the plasmids in 3.5-cm dishes using DOTAP (Boehringer Mannheim) following instructions from the manufacturer. For experiments involving GAL-Jun, 20 ng of the plasmid was transfected with 1 μg of the reporter plasmid pFR-Luc (Stratagene) and 0.5 μg of either MKK4 or MKK7 expressing plasmids. Three hours following transfection, cell media were changed and TAT and TAT-IB1(s) peptides (1 μM) were added. The luciferase activities were measured 16 hours later using the “Dual Reporter System” from Promega after normalization to protein content. […] Because HeLa cells express JNK1 and JNK2 isoforms but not JNK3, we transfected cells with JNK3.
# [10] = system: βTC-3 cell cultures; format: cell-based
# Description: The ability of the L- and D-enantiomeric forms of TAT and inventive TAT-IB1(s) peptides (“TAT-IB peptides”) to enter cells was evaluated. L-TAT, D-TAT, inventive L-TAT-IB1(s), and inventive D-TAT-IB1(s) peptides [SEQ ID NOs: 5, 6, 9 and 12, respectively] were labeled by N-terminal addition of a glycine residue conjugated to fluorescein. Labeled peptides (1 μM) were added to βTC-3 cell cultures, which were maintained as described in Example 3. At predetermined times cells were washed with PBS and fixed for five minutes in ice-cold methanol-acetone (1:1) before being examined under a fluorescence microscope. Fluorescein-labeled BSA (1 μM, 12 moles/mole BSA) was used as a control.
# Little to no signal was present at 48 hours.
# Fluorescent signals from these all-D retro-inverso peptides were still very strong 1 week later, and the signal was only slightly diminished at 2 weeks post treatment.
# T1 sequence (P53779 whole entry, species assumed, the tested form may be a part): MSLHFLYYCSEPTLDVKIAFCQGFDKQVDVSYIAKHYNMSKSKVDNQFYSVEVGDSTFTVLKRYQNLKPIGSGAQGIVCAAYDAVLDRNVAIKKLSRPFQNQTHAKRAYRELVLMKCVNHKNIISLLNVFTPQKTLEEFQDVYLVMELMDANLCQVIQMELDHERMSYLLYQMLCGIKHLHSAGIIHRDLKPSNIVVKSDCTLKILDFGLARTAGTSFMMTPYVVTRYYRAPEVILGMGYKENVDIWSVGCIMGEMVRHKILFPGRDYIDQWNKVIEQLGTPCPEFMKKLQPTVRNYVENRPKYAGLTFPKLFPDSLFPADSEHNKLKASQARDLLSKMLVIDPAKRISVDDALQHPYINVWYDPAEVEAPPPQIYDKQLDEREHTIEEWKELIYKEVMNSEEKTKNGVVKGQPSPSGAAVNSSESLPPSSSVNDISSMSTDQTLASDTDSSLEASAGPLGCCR
substance,measurement,setting,value
IPSPSVEEPHKHRPTTLRLTTLGAQDS (IPSPSVEEPHKHRPTTLRLTTLGAQDS) [1B2-long],efficiency in binding JNK relative to c-Jun or ATF2,[1],approximately 100 fold
NH2-DQSRPVQPFLNLTTPRKPRPPRRRQRRKKRG-COOH (H-[dD][dQ][dS][dR][dP][dV][dQ][dP][dF][dL][dN][dL][dT][dT][dP][dR][dK][dP][dR][dP][dP][dR][dR][dR][dQ][dR][dR][dK][dK][dR]G-OH) [XG102],"infarct volume sizes, moyenne","[2]; 0.3 mg/kg bolus iv 6 hours after reperfusion (30 minutes clamp), n = 5, 48 h after reperfusion",16 mm^3
same,"infarct volume sizes, moyenne","[2]; 1 mg/kg bolus iv 6 hours after reperfusion (30 minutes clamp), n = 1, 48 h after reperfusion",16 mm^3
same,"infarct volume sizes, moyenne","[2]; XG102 3 group, bolus iv 6 hours after reperfusion (30 minutes clamp), n = 5, 48 h after reperfusion",15 mm^3
NH2-GRKKRRQRRRPPRPKRPTTLNLFPQVPRSQD-COOH (H-GRKKRRQRRRPPRPKRPTTLNLFPQVPRSQD-OH) [L-TAT-IB1(s)],prevention of irradiation induced apoptosis,[3],able to prevent irradiation induced apoptosis
same,long term inhibition of IL-1β induced cell-death,[4]; one single addition 1 μM,"but not inventive L-TAT-IB1 (s), was able to confer long term (15 day) protection"
same,formation of the AP-1 DNA binding complex,[5],decrease the formation of the AP-1 DNA binding complex in the presence of TNF-α
NH2-GRKKRRQRRRPPRPKRPTTLNLFPQVPRSQD-COOH (H-GRKKRRQRRRPPRPKRPTTLNLFPQVPRSQD-OH) [TAT-IB(s)],prevention of c-Jun phosphorylation by activated JNKs,[6],efficiently prevented phosphorylation of c-Jun by activated JNKs
same,inhibition of IL-1 induced apoptosis,"[4]; 1 μM, second addition at 24 hours, IL-1 10 ng/mL, two days",inhibited IL-1-induced apoptosis of βTC-3 cells
same,long term inhibition of IL-1 induced cell death,"[4]; 12 days, peptide 1 μM added each day, IL-1β 10 ng/mL every 2 days",confers strong protection against apoptosis
same,long term inhibition of IL-1β induced cell-death,"[4]; one single addition 1 μM, listed as TAT-IB 1",does not confer long-term protection
same,inhibition of JNK3 phosphorylation of Elk1,[7],absence of TAT-IB(s) inhibition of JNKS phosphorylation of Elk1
same,"inhibition of JNK family phosphorylation of target transcription factors, overall",[8],superior effects in inhibiting JNK family phosphorylation of their target transcription factors
same,"peptide dose giving nearly complete inhibition of c-Jun, ATF2 and Elk1 phosphorylation by JNKs","[8]; dose response 0-25 μM, GST-Jun (aa 1-89), GST-AFT2 (aa 1-96), GST-ELK1 (aa 307-428)",≥ 2.5 µM
same,activation of c-Jun (luciferase) in cells transfected with JNK3,[9]; HeLa cells transfected with JNK3,inhibited JNK2 mediated activation of c-Jun
same,activation of c-Jun (luciferase) following MKK4 and MKK7 mediated activation of JNK,[9]; luciferase 16 hours later,blocked activation of c-Jun following MKK4 and MKK7 mediated activation of JNK
"NH2-RRRQRRKKRG-COOH (D-amino acids) [D-TAT, reference compound]",stability inside the cells,[10],extremely stable inside the cells
PGTGCGDTYRPKRPTTLNLFPQVPRSQDT (PGTGCGDTYRPKRPTTLNLFPQVPRSQDT) [IB1-long],efficiency in binding JNK relative to c-Jun or ATF2,[1],approximately 100 fold
"TDQSRPVQPFLNLTTPRKPRYTDPPRRRQRRKKRG (TDQSRPVQPFLNLTTPRKPRYTDPPRRRQRRKKRG) [D-TAT-IB1, reference compound]",inhibition of IL-1β induced apoptosis,"[4]; one single addition 1 μM, IL-1 10 ng/ml, two days, n=5",decreased IL-1 induced apoptosis to a similar extent as L-TAT-IB peptides
